These results are taken from the supplement of paper PMC10307832.

Holding throughout (test): relative viability (nuclei count vs DMSO), 5 days (fraction); higher = more cells survive
Compound in the assay “Dabrafenib + Decitabine”: CC(C)(C)c1nc(-c2cccc(NS(=O)(=O)c3c(F)cccc3F)c2F)c(-c2ccnc(N)n2)s1 [Dabrafenib] + Nc1ncn([C@H]2C[C@H](O)[C@@H](CO)O2)c(=O)n1 [Decitabine] (partner 2 µM)
The procedure, abridged: (§1)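 One day after seeding in 1536-well plates, lung cancer cell lines were dosed by pin tool. Dosing was either single-drug or a fixed anchor-drug dose plus five library-drug doses (not always all listed) in √10 steps. After 5 days, nuclei were stained in one fix-and-stain step and counted on 4× images, and relative viability is the nuclei count of treated wells over that of vehicle wells, given as the median of duplicate plates.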

Compound in the assay “Dabrafenib + Phenformin”: CC(C)(C)c1nc(-c2cccc(NS(=O)(=O)c3c(F)cccc3F)c2F)c(-c2ccnc(N)n2)s1 [Dabrafenib] + N=C(N)NC(=N)NCCc1ccccc1 [Phenformin] (partner 250 µM)
Put shortly: as §1

Compound in the assay “Dabrafenib + Luminespib”: CC(C)(C)c1nc(-c2cccc(NS(=O)(=O)c3c(F)cccc3F)c2F)c(-c2ccnc(N)n2)s1 [Dabrafenib] + CCNC(=O)c1noc(-c2cc(C(C)C)c(O)cc2O)c1-c1ccc(CN2CCOCC2)cc1 [Luminespib] (partner 0.01 µM)
Put shortly:
as §1

Compound in the assay “VX-702 + Linsitinib”: NC(=O)c1ccc(N(C(N)=O)c2c(F)cccc2F)nc1-c1ccc(F)cc1F [VX-702] + C[C@]1(O)C[C@@H](c2nc(-c3ccc4ccc(-c5ccccc5)nc4c3)c3c(N)nccn32)C1 [Linsitinib] (partner 1 µM)
Put shortly:
as §1

For PC-14, the relative viability worked out at 0.172 with Dabrafenib + Decitabine (first compound 0.003 µM); 0.276 in the assay with Dabrafenib + Decitabine (first compound 0.009487 µM); 0.24 with Dabrafenib + Decitabine (first compound 0.03 µM); 0.219 with Dabrafenib + Decitabine (first compound 0.09487 µM); 0.147 with Dabrafenib + Decitabine (first compound 0.3 µM); 0.493 with Dabrafenib + Phenformin (first compound 0.009487 µM). Further, the relative viability with Dabrafenib + Phenformin (first compound 0.03 µM) was 0.623; with Dabrafenib + Phenformin (first compound 0.09487 µM) it was 0.583; with Dabrafenib + Phenformin (first compound 0.3 µM), 0.83; in the assay with Dabrafenib + Luminespib (first compound 0.009487 µM) it was 0.272; with Dabrafenib + Luminespib (first compound 0.03 µM), 0.158; in the assay with Dabrafenib + Luminespib (first compound 0.09487 µM), 0.149. The relative viability with Dabrafenib + Luminespib (first compound 0.3 µM) came to 0.115; with VX-702 + Linsitinib (first compound 0.02 µM), 0.965; in the assay with VX-702 + Linsitinib (first compound 0.2 µM), 0.943; with VX-702 + Linsitinib (first compound 0.6325 µM), 1.04; in the assay with VX-702 + Linsitinib (first compound 2 µM), 1.04.
In the case of RERF-LC-KJ, the relative viability with Dabrafenib + Decitabine (first compound 0.003 µM) stood at 0.792; with Dabrafenib + Decitabine (first compound 0.009487 µM), 0.724; with Dabrafenib + Decitabine (first compound 0.03 µM) it was 0.655; with Dabrafenib + Decitabine (first compound 0.09487 µM), 0.731; with Dabrafenib + Decitabine (first compound 0.3 µM) it was 0.705; with Dabrafenib + Phenformin (first compound 0.003 µM), 0.432. In addition, the relative viability in the assay with Dabrafenib + Phenformin (first compound 0.009487 µM) came to 0.435; with Dabrafenib + Phenformin (first compound 0.03 µM), 0.43; with Dabrafenib + Phenformin (first compound 0.09487 µM), 0.447; with Dabrafenib + Phenformin (first compound 0.3 µM) it was 0.546; with Dabrafenib + Luminespib (first compound 0.003 µM), 1.31; in the assay with Dabrafenib + Luminespib (first compound 0.009487 µM), 1.3. The relative viability came to 1.26 with Dabrafenib + Luminespib (first compound 0.03 µM); 1.31 with Dabrafenib + Luminespib (first compound 0.09487 µM); 1.25 with Dabrafenib + Luminespib (first compound 0.3 µM); 0.956 with VX-702 + Linsitinib (first compound 0.02 µM); 0.883 in the assay with VX-702 + Linsitinib (first compound 0.2 µM); 0.876 with VX-702 + Linsitinib (first compound 0.6325 µM). For the same cell line, the relative viability with VX-702 + Linsitinib (first compound 2 µM) was found to be 0.966.
Regarding SK-LU-1, the relative viability with Dabrafenib + Decitabine (first compound 0.009487 µM) stood at 0.657; with Dabrafenib + Decitabine (first compound 0.03 µM) it was 0.569; with Dabrafenib + Decitabine (first compound 0.09487 µM) it was 0.571; with Dabrafenib + Decitabine (first compound 0.3 µM), 0.484; in the assay with Dabrafenib + Phenformin (first compound 0.009487 µM) it was 0.571; with Dabrafenib + Phenformin (first compound 0.03 µM) it was 0.326. In addition, the relative viability with Dabrafenib + Phenformin (first compound 0.09487 µM) came to 0.47; in the assay with Dabrafenib + Phenformin (first compound 0.3 µM), 0.373; in the assay with Dabrafenib + Luminespib (first compound 0.009487 µM), 0.234; with Dabrafenib + Luminespib (first compound 0.03 µM) it was 0.169; with Dabrafenib + Luminespib (first compound 0.09487 µM), 0.22; in the assay with Dabrafenib + Luminespib (first compound 0.3 µM), 0.201. Besides, the relative viability with VX-702 + Linsitinib (first compound 0.02 µM) amounted to 1.06; in the assay with VX-702 + Linsitinib (first compound 0.2 µM) it was 1.03; with VX-702 + Linsitinib (first compound 0.6325 µM) it was 1.08; with VX-702 + Linsitinib (first compound 2 µM) it was 1.22.
SK-MES-1: the relative viability was determined as 0.362 with Dabrafenib + Decitabine (first compound 0.003 µM); 0.441 with Dabrafenib + Decitabine (first compound 0.009487 µM); 0.405 with Dabrafenib + Decitabine (first compound 0.03 µM); 0.382 with Dabrafenib + Decitabine (first compound 0.09487 µM); 0.338 with Dabrafenib + Decitabine (first compound 0.3 µM); 0.582 in the assay with Dabrafenib + Phenformin (first compound 0.003 µM). Besides, the relative viability was determined as 0.757 in the assay with Dabrafenib + Phenformin (first compound 0.009487 µM); 0.665 with Dabrafenib + Phenformin (first compound 0.03 µM); 0.543 in the assay with Dabrafenib + Phenformin (first compound 0.09487 µM); 0.508 with Dabrafenib + Phenformin (first compound 0.3 µM); 0.676 in the assay with Dabrafenib + Luminespib (first compound 0.003 µM); 0.973 with Dabrafenib + Luminespib (first compound 0.009487 µM). Also, the relative viability with Dabrafenib + Luminespib (first compound 0.03 µM) stood at 0.86; in the assay with Dabrafenib + Luminespib (first compound 0.09487 µM), 0.8; with Dabrafenib + Luminespib (first compound 0.3 µM), 0.688; in the assay with VX-702 + Linsitinib (first compound 0.02 µM), 1.06; with VX-702 + Linsitinib (first compound 0.2 µM), 0.997; with VX-702 + Linsitinib (first compound 0.6325 µM) it was 1.04. Also, the relative viability in the assay with VX-702 + Linsitinib (first compound 2 µM) is 1.1.
As to SW 1573, the relative viability stood at 0.448 with Dabrafenib + Decitabine (first compound 0.003 µM); 0.545 with Dabrafenib + Decitabine (first compound 0.009487 µM); 0.488 with Dabrafenib + Decitabine (first compound 0.03 µM); 0.589 in the assay with Dabrafenib + Decitabine (first compound 0.09487 µM); 0.357 with Dabrafenib + Decitabine (first compound 0.3 µM); 0.371 with Dabrafenib + Phenformin (first compound 0.003 µM). In addition, the relative viability with Dabrafenib + Phenformin (first compound 0.009487 µM) amounted to 0.445; with Dabrafenib + Phenformin (first compound 0.03 µM), 0.324; with Dabrafenib + Phenformin (first compound 0.09487 µM) it was 0.465; with Dabrafenib + Phenformin (first compound 0.3 µM), 0.541; with Dabrafenib + Luminespib (first compound 0.003 µM) it was 0.179; with Dabrafenib + Luminespib (first compound 0.009487 µM), 0.314. Also, the relative viability was 0.289 in the assay with Dabrafenib + Luminespib (first compound 0.03 µM); 0.633 with Dabrafenib + Luminespib (first compound 0.09487 µM); 0.217 with Dabrafenib + Luminespib (first compound 0.3 µM); 0.918 with VX-702 + Linsitinib (first compound 0.02 µM); 0.737 with VX-702 + Linsitinib (first compound 0.2 µM); 0.647 with VX-702 + Linsitinib (first compound 0.6325 µM). The relative viability with VX-702 + Linsitinib (first compound 2 µM) turned out to be 0.659.
Turning to UMC-11, the relative viability in the assay with Dabrafenib + Decitabine (first compound 0.003 µM) is 0.707; with Dabrafenib + Decitabine (first compound 0.009487 µM), 0.603; in the assay with Dabrafenib + Decitabine (first compound 0.03 µM), 0.558; with Dabrafenib + Decitabine (first compound 0.09487 µM), 0.383; with Dabrafenib + Decitabine (first compound 0.3 µM) it was 0.434; with Dabrafenib + Phenformin (first compound 0.003 µM), 0.289. Further, the relative viability is 0.331 in the assay with Dabrafenib + Phenformin (first compound 0.009487 µM); 0.332 with Dabrafenib + Phenformin (first compound 0.03 µM); 0.329 with Dabrafenib + Phenformin (first compound 0.09487 µM); 0.279 in the assay with Dabrafenib + Phenformin (first compound 0.3 µM); 1.14 with Dabrafenib + Luminespib (first compound 0.003 µM); 1.12 with Dabrafenib + Luminespib (first compound 0.009487 µM). Also, the relative viability is 0.85 with Dabrafenib + Luminespib (first compound 0.03 µM); 0.939 in the assay with Dabrafenib + Luminespib (first compound 0.09487 µM); 1.07 in the assay with Dabrafenib + Luminespib (first compound 0.3 µM); 0.949 with VX-702 + Linsitinib (first compound 0.02 µM); 0.985 in the assay with VX-702 + Linsitinib (first compound 0.2 µM); 0.851 with VX-702 + Linsitinib (first compound 0.6325 µM). In the assay with VX-702 + Linsitinib (first compound 2 µM), the relative viability was 1.08.
